According to publication PMC4490784, “Compensatory induction of MYC expression by sustained CDK9 inhibition via a BRD4-dependent mechanism” (eLife, 2015):

Legend:
GSK3A = biological target: T1, GSK3A (Homo sapiens, UniProt P49840); assay: KINOMEscan binding assay; conditions: read-out: % Retention on Solid Support
T1 construct: purchased DiscoveRx KINOMEscan
Method: (§1) As there are no commercial or in-house kinase assays available for CDK3, CDK5, CDK11 and CDK13, the inhibitory abilities of i-CDK9 toward these CDKs were thus evaluated in the DiscoveRx KINOMEscan assay, which is based on a proprietary active site-directed competition-binding platform ([Fabian et al., 2005]).
(§2) The inhibitory activity of i-CDK9 for CDK1-CycB (Upstate/Millipore), CDK2-CycA (Invitrogen), CDK4-CycD1 (Novartis), CDK7-CycH-MAT1 (Invitrogen), and CDK9-CycT1 (Invitrogen) was assessed in the AlphaScreen (PerkinElmer, Inc)-based kinase assay developed at Novartis. Briefly, each CDK–cyclin pair was pre-incubated with i-CDK9 for 15 min, followed by addition of kinase substrates (ELK for CDK1 and CDK2, RB for CDK4, and CDK7tide for CDK7 and CDK9). The mixture was incubated at room temperature for additional 4–5 hr. The reaction was stopped and read on Envision (PerkinElmer, Inc). Selectivity against a large panel of over 400 kinases was evaluated using the KINOMEscan platform (DiscoveRx, CA) employing a proprietary active site-directed competition binding assay ([Fabian et al., 2005]). The assay was conducted at two different concentrations of i-CDK9 (1 and 10 µM) by DiscoveRx.

FGFR3(G697C) = biological target: T2, FGFR3(G697C) (Homo sapiens, UniProt P22607, G697C); assay: KINOMEscan binding assay; conditions: read-out: % Retention on Solid Support
T2 construct: purchased DiscoveRx KINOMEscan
Method: as §1, §2

YES = biological target: T3, YES (Homo sapiens, UniProt P07947); assay: KINOMEscan binding assay; conditions: read-out: % Retention on Solid Support
T3 construct: purchased DiscoveRx KINOMEscan
Method: as §1, §2

CAMKK1 = biological target: T4, CAMKK1 (Homo sapiens, UniProt Q8N5S9); assay: KINOMEscan binding assay; conditions: read-out: % Retention on Solid Support
T4 construct: purchased DiscoveRx KINOMEscan
Method: as §1, §2

PRKG1 = biological target: T5, PRKG1 (Homo sapiens, UniProt Q13976); assay: KINOMEscan binding assay; conditions: read-out: % Retention on Solid Support
T5 construct: purchased DiscoveRx KINOMEscan
Method: as §1, §2

MERTK = biological target: T6, MERTK (Homo sapiens, UniProt Q12866); assay: KINOMEscan binding assay; conditions: read-out: % Retention on Solid Support
T6 construct: purchased DiscoveRx KINOMEscan
Method: as §1, §2

FGFR4 = biological target: T7, FGFR4 (Homo sapiens, UniProt P22455); assay: KINOMEscan binding assay; conditions: read-out: % Retention on Solid Support
T7 construct: purchased DiscoveRx KINOMEscan
Method: as §1, §2

TAOK2 = biological target: T8, TAOK2 (Homo sapiens, UniProt Q9UL54); assay: KINOMEscan binding assay; conditions: read-out: % Retention on Solid Support
T8 construct: purchased DiscoveRx KINOMEscan
Method: as §1, §2

EGFR(G719S) = biological target: T9, EGFR(G719S) (Homo sapiens, UniProt P00533, G719S); assay: KINOMEscan binding assay
T9 construct: purchased DiscoveRx KINOMEscan
Method: as §1, §2

TIE1 = biological target: T10, TIE1 (Homo sapiens, UniProt P35590); assay: KINOMEscan binding assay; conditions: read-out: % Retention on Solid Support
T10 construct: purchased DiscoveRx KINOMEscan
Method: as §1, §2

MAP3K3 = biological target: T11, MAP3K3 (Homo sapiens, UniProt Q99759); assay: KINOMEscan binding assay; conditions: read-out: % Retention on Solid Support
T11 construct: purchased DiscoveRx KINOMEscan
Method: as §1, §2

PAK4 = biological target: T12, PAK4 (Homo sapiens, UniProt O96013); assay: KINOMEscan binding assay; conditions: read-out: % Retention on Solid Support
T12 construct: purchased DiscoveRx KINOMEscan
Method: as §1, §2

SIK = biological target: T13, SIK (Homo sapiens, UniProt P57059); assay: KINOMEscan binding assay
T13 construct: purchased DiscoveRx KINOMEscan
Method: as §1, §2

ACVR2B = biological target: T14, ACVR2B (Homo sapiens, UniProt Q13705); assay: KINOMEscan binding assay
T14 construct: purchased DiscoveRx KINOMEscan
Method: as §1, §2

CTK = biological target: T15, CTK (Homo sapiens, UniProt P42679); assay: KINOMEscan binding assay; conditions: read-out: % Retention on Solid Support
T15 construct: purchased DiscoveRx KINOMEscan
Method: as §1, §2

[1] = biological target: T16, affinity-purified CDK12-F-CycK (Homo sapiens, UniProt Q9NYV4); assay: In vitro kinase reaction, GST-CTD substrate, pSer2 Western blotting; type: biochemical; conditions: even at 80 nM
T16 construct: made in house
Method: (§3) Figure 1. i-CDK9 is a potent and selective CDK9 inhibitor that elicits cellular responses indicative of P-TEFb inhibition. (A and B) Structures and selectivity profiles of i-CDK9 (A) and falvopiridol (B). […] (C) In vitro kinase reactions containing affinity-purified CDK9-F-CycT or CDK12-F-CycK and GST-CTD as a substrate were conducted in the presence of the indicated concentrations of i-CDK9. pSer2 and the Flag-tagged kinase in each reaction were detected by Western blotting with anti-pSer2 and anti-Flag antibodies, respectively. (D) HeLa cells were treated for 8 hr with DMSO or the indicated concentrations of i-CDK9. Total cell lysates were examined by immunoblotting for the proteins labeled on the left. DOI: http://dx.doi.org/10.7554/eLife.06535.003 Figure 1—source data 1. Selectivity profile of i-CDK9. DOI: http://dx.doi.org/10.7554/eLife.06535.004 Figure 1—figure supplement 1. Recombinant CDK12-CycK is less sensitive to inhibition by i-CDK9.
(§4) Among all members of the CDK super family, CDK12 deserves special attention because of its reported phosphorylation of the Pol II CTD on Ser2, an ability that is shared with CDK9 ([Bartkowiak et al., 2010]). […] Phosphorylation of Ser2 (pSer2) was detected by Western blotting with a specific antibody.

[2] = biological target: T17, affinity-purified CDK9-F-CycT (Homo sapiens, UniProt P50750); assay: as above; type: biochemical; conditions: read-out: estimated IC50 of Ser2 phosphorylation
T17 construct: made in house; host or cells: probably the HeLa-based F1C2 cells
Method: as §3, §4

[3] = biological target: JAK2(JH1domain-catalytic) (Homo sapiens, UniProt O60674); assay: biochemical binding or enzymatic assay; parameters: JAK2(JH1domain-catalytic); conditions: Novartis
Method: Finally, the selectivity profile of i-CDK9 toward other non-CDK kinases was also assessed using the KINOMEscan platform. […] Except for CLK4, for which no suitable assay was available, the rest of the kinases plus a selected group of others were re-examined for the concentration-dependent effect of i-CDK9 in either functional kinase assays or binding assays. […] Indeed, it has recently been reported that DYRK1A acts as a Pol II CTD Kinase at its target gene promoters ([Di Vona et al., 2015]).

T7 sequence (P22455 22-802): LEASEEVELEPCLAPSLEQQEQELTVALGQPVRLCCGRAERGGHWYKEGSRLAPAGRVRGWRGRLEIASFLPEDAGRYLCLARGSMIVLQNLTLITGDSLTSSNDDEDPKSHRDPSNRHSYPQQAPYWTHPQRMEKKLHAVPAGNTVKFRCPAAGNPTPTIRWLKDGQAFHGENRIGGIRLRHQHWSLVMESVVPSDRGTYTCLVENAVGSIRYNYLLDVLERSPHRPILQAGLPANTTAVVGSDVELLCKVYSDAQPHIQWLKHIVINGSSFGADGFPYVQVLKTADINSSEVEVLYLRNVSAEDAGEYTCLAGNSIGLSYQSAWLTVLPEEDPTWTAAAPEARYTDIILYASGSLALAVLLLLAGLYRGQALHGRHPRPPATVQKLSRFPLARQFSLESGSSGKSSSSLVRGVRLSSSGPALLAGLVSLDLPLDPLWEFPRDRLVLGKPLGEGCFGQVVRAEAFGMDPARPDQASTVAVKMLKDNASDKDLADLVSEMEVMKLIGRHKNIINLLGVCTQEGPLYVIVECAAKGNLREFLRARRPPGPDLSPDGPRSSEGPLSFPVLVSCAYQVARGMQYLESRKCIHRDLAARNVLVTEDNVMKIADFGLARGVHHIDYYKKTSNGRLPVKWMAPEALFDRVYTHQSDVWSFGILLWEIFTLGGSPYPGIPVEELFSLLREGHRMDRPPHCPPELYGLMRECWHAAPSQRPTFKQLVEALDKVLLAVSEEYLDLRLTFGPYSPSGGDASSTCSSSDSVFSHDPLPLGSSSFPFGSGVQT
T4 sequence (Q8N5S9 whole entry): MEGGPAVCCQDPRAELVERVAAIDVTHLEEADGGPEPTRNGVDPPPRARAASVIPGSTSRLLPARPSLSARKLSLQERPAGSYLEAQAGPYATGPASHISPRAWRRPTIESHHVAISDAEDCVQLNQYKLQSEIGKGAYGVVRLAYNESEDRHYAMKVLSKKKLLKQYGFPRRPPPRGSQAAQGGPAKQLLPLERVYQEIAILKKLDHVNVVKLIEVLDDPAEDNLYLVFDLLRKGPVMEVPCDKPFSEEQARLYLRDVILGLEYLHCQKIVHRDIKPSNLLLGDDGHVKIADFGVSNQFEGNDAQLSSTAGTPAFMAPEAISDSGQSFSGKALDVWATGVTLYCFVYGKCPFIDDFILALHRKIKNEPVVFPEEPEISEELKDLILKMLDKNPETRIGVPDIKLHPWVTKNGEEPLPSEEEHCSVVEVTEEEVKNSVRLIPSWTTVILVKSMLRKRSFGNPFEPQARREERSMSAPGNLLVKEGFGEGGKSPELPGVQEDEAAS
T2 sequence (P22607 23-806 G697C): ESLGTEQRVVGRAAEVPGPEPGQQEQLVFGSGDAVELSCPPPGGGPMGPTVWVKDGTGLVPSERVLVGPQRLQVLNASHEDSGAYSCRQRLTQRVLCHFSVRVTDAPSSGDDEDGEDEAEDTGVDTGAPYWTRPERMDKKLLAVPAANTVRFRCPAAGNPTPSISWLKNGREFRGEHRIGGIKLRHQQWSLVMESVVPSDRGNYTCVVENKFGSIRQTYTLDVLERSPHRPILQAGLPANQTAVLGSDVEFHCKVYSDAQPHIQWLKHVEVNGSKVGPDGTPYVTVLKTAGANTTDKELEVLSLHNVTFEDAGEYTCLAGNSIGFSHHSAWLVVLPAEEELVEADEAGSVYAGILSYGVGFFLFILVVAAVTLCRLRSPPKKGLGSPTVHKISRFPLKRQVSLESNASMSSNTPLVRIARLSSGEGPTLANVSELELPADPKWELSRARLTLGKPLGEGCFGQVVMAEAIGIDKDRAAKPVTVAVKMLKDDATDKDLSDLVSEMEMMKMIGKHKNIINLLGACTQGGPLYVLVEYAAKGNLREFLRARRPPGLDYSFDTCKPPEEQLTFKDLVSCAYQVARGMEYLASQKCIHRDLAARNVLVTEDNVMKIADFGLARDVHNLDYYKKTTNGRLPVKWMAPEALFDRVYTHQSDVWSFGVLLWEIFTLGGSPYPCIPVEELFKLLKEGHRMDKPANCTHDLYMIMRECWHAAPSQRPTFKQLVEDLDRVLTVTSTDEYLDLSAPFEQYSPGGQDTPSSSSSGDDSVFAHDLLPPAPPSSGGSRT
T11 sequence (Q99759 whole entry): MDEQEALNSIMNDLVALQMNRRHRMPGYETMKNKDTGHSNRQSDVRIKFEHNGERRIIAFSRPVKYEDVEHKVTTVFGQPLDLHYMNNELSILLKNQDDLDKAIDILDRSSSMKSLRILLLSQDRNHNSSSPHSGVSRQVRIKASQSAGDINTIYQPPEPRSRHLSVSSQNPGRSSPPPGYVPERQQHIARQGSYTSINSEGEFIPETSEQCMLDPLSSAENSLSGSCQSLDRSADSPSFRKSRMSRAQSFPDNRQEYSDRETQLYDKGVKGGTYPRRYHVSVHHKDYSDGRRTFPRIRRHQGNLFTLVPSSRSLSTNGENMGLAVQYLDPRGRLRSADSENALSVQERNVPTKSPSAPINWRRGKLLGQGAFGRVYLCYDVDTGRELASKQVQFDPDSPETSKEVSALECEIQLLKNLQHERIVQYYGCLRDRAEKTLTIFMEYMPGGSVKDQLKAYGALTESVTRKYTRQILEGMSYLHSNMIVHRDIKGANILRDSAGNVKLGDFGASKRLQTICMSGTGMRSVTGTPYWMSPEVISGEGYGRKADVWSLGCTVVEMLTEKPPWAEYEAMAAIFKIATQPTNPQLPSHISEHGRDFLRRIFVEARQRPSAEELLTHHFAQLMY
T13 sequence (P57059 whole entry): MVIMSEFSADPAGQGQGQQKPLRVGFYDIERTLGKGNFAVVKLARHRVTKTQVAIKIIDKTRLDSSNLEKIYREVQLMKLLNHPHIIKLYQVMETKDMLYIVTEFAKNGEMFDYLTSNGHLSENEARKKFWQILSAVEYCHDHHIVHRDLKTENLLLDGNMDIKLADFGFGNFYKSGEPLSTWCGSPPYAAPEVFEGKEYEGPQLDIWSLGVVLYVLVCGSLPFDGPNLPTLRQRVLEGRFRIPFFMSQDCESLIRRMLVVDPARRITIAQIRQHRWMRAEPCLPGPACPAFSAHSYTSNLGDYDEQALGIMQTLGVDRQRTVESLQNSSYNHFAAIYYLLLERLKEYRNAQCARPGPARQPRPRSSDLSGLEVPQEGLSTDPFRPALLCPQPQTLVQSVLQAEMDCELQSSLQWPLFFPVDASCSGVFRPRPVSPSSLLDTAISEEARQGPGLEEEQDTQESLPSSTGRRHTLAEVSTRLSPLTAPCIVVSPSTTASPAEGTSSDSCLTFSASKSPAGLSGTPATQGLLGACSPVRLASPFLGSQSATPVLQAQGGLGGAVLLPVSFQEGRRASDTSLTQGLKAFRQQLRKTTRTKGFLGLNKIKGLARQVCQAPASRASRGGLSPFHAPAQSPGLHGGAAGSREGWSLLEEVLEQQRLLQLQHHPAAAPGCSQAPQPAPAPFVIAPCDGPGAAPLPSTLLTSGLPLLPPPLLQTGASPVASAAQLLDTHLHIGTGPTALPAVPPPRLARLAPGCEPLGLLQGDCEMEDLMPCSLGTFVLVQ
T8 sequence (Q9UL54 whole entry): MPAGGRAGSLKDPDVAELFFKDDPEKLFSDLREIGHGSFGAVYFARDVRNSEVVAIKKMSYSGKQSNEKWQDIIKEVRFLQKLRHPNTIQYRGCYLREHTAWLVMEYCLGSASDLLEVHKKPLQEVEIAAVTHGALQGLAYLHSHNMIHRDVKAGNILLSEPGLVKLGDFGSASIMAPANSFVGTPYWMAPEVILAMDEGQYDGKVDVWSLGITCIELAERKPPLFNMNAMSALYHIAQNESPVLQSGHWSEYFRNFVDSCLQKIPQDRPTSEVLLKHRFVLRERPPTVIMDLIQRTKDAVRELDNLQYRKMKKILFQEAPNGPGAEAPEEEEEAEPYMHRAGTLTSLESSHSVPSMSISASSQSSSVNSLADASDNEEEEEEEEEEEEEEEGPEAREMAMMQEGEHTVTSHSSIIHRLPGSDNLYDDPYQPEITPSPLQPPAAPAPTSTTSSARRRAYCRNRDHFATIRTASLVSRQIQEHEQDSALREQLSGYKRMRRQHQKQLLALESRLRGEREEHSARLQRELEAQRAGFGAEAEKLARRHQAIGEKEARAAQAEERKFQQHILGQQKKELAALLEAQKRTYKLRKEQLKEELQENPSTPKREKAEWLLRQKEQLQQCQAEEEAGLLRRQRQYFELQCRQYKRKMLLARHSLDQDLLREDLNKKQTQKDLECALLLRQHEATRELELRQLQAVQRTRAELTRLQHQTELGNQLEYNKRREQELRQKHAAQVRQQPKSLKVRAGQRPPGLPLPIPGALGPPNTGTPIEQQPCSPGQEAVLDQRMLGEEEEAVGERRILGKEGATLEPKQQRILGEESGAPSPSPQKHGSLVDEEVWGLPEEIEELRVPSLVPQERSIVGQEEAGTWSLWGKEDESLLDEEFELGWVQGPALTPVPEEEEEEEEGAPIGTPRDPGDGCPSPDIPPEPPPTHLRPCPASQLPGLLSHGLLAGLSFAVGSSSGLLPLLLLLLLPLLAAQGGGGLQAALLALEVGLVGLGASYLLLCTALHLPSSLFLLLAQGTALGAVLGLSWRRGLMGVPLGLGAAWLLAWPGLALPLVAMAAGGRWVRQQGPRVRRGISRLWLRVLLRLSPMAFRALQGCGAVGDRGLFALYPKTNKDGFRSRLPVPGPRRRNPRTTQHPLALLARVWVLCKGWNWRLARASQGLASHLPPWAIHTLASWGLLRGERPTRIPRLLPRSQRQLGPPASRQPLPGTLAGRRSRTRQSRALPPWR
JAK2(JH1domain-catalytic), sequence (O60674 849-1124 limits assumed): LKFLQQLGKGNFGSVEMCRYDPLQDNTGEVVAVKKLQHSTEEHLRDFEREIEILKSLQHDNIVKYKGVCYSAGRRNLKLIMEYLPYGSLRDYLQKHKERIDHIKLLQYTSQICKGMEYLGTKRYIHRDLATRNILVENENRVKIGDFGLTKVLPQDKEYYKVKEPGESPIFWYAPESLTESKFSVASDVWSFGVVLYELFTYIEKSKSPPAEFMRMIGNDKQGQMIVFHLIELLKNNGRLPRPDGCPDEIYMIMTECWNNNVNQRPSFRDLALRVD

Work on `N[C@H]1CC[C@H](Nc2cc(-c3cccc(NCc4cccc(F)c4)n3)c(Cl)cn2)CC1` [i-CDK9, N2′-(trans-4-aminocyclohexyl)-5′-chloro-N6-(3-fluorobenzyl)-2,4′-bipyridine-2′,6-diamine] yielded a remaining binding at 1 µM (GSK3A; 1 µM i-CDK9) of 93%, a remaining binding at 10 µM (GSK3A; 10 µM i-CDK9) of 8.7% and a remaining binding at 1 µM (FGFR3(G697C); 1 µM i-CDK9) of 96%. For the same compound, the remaining binding at 10 µM (FGFR3(G697C); 10 µM i-CDK9) was 100%, the remaining binding at 1 µM (YES; 1 µM i-CDK9) was 84% and the remaining binding at 10 µM (YES; 10 µM i-CDK9) was 90%. The remaining binding at 1 µM (CAMKK1; 1 µM i-CDK9) was 100%, the remaining binding at 10 µM (CAMKK1; 10 µM i-CDK9) was 100% and the remaining binding at 1 µM (PRKG1; 1 µM i-CDK9) was 81%. It also gave a remaining binding at 10 µM (PRKG1; 10 µM i-CDK9) of 88%, a remaining binding at 1 µM (MERTK; 1 µM i-CDK9) of 100% and a remaining binding at 10 µM (MERTK; 10 µM i-CDK9) of 60%. The remaining binding at 1 µM (FGFR4; 1 µM i-CDK9) was 98%, the remaining binding at 10 µM (FGFR4; 10 µM i-CDK9) was 100% and the remaining binding at 1 µM (TAOK2; 1 µM i-CDK9) was 82%. For the same compound, the remaining binding at 10 µM (TAOK2; 10 µM i-CDK9) was 5.8%, the “% Retention on Solid Support” value (EGFR(G719S); 1 µM i-CDK9) was 100% and the “% Retention on Solid Support” value (EGFR(G719S); 10 µM i-CDK9) was 100%. The remaining binding at 1 µM (TIE1; 1 µM i-CDK9) was 85%, the remaining binding at 10 µM (TIE1; 10 µM i-CDK9) was 100% and the remaining binding at 1 µM (MAP3K3; 1 µM i-CDK9) was 100%. For the same compound, the remaining binding at 10 µM (MAP3K3; 10 µM i-CDK9) was 93%, the remaining binding at 1 µM (PAK4; 1 µM i-CDK9) was 100% and the remaining binding at 10 µM (PAK4; 10 µM i-CDK9) was 100%. The “% Retention on Solid Support” value (SIK; 1 µM i-CDK9) was 100%, the “% Retention on Solid Support” value (SIK; 10 µM i-CDK9) was 100% and the “% Retention on Solid Support” value (ACVR2B; 1 µM i-CDK9) was 100%. The “% Retention on Solid Support” value (ACVR2B; 10 µM i-CDK9) was 85%, the remaining binding at 1 µM (CTK; 1 µM i-CDK9) was 75% and the remaining binding at 10 µM (CTK; 10 µM i-CDK9) was 100%. The “inhibition of Ser2 phosphorylation” value [1] was “no obvious inhibition”, the IC50 [2] was ~2 nM and the IC50 [3] was > 10000 nM.
